Test results taken from PubChem BioAssay (NCI).
“And” between values parts separate entries of the source, which are not always exact repeats. Identical values can stand only once.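 Briefly, cells in 96-well plates were exposed to five compound concentrations for 48 h, and endpoints were estimated by linear interpolation. The concentration for 50% growth inhibition is given as GI50. TGI denotes the concentration required for complete inhibition of growth.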

What was measured:
Assay in all cases: DTP human tumour cell line panel, 48 h
[1] = tested on: BT-549 breast
[2] = tested on: DMS 114 small cell lung
[3] = tested on: KM20L2 colon
[4] = tested on: M19-MEL melanoma
[5] = tested on: SNB-78 CNS
[6] = tested on: MDA-N
[7] = tested on: RXF-631 renal

| Compound | GI50 [1] | TGI [1] | TGI [2] | TGI [3] | TGI [4] | TGI [5] | TGI [6] | TGI [7] |
| --- | --- | --- | --- | --- | --- | --- | --- | --- |
| Cc1nc2sc(C(=O)Nc3cccc(Cl)c3)c(N)c2cc1C(O)c1ccccc1 (centres undefined) | 6.13 µM | 35.6 µM | – | – | – | – | – | – |
| OCCN1CCCN(CCCN2c3ccccc3Sc3ccc(C(F)(F)F)cc32)CC1 | 5.93 µM | 20.4 µM | – | – | – | – | – | – |
| COc1ccc([C@H]2c3[nH]c4ccccc4c3C[C@H]3C(=O)N(CCCCCCC(=O)NO)CC(=O)N23)cc1 | 10.9 µM | > 33.3 µM | – | – | – | – | – | – |
| COc1cc(C(=O)Nc2ccc(-c3nc4ccccc4[nH]3)cc2)cc(OC)c1OC | 12.7 µM | 29.2 µM | – | – | – | – | – | – |
| COc1cc2c(c(OC)c1OC)-c1ccc(SC)c(=O)cc1C(CC(=O)Oc1ccccc1F)C2 (centres undefined) | – | – | 0.0438 µM | 0.0252 µM | > 7.5 µM | > 7.5 µM | – | – |
| C=C(c1ccc(C(=O)NCCCn2ccnc2)cc1)c1cc2c(cc1C)C(C)(C)CCC2(C)C | 3.14 µM | 14.9 µM | – | – | – | – | – | – |
| COC(=O)c1sc(=S)c2sc(C(=O)OC)c(C(=O)OC)c2c1C(=O)OC | 46.8 µM | > 100 µM | – | – | – | – | – | – |
| O=C(NCCNC1=CC(=O)c2nc3ccccc3c3ccnc1c23)c1cnccn1 | 44.8 µM | > 100 µM | – | – | – | – | – | – |
| CC(=O)O[C@H]1C(=O)[C@@]2(C)C([C@H](OC(=O)c3ccccc3)[C@]3(O)C[C@H](OC(=O)[C@H](O)[C@@H](NC(=O)c4ccc(Cl)cc4)c4ccccc4)C(C)=C1C3(C)C)C1(OC(C)=O)CO[C@@H]1C[C@@H]2O (some centres undefined) | – | 0.212 µM | – | > 100 µM | 14.1 µM | – | 0.0195 µM | – |
| COc1cc(/C=C/C(=O)/C=C/c2ccc(-n3ccnc3)cc2)ccc1O | 1.87 µM | 3.79 µM | – | – | – | – | – | – |
| COc1ccc(/C(C#N)=C2/O/C(=N/N)C(c3ccc(OC)c(OC)c3)C2=O)cc1OC (centres undefined) | – | – | – | > 100 µM | > 100 µM | > 100 µM | – | – |
| COc1ccc(C2=NOC3=c4ccccc4=CSC3=C2c2ccccc2)cc1 | 24 µM | 77 µM | – | – | – | – | – | – |
| O=C(Nc1ccc(-n2cc(-c3ccncc3)c(-c3ccc(Cl)c(O)c3)n2)cc1)c1ccc(Cl)c(Cl)c1 | 5.04 µM | > 100 µM | – | – | – | – | – | – |
| Cc1ncc([N+](=O)[O-])n1CCOc1ccc(C(=O)/C=C/c2ccc(C(F)(F)F)cc2)cc1 | 4.64 µM | 17 µM | – | – | – | – | – | – |
| O=C(N[C@H]1CC2(C=C(I)C(=O)C(I)=C2)OC1=O)OCc1ccccc1 | – | – | 39.3 µM | 34.7 µM | – | 33.5 µM | – | 30.8 µM |
| COc1cc(OC)c(OC)cc1/C=C\c1ccnc2ccccc12 | – | > 100 µM | – | 6.86 µM | > 100 µM | > 100 µM | 0.791 µM | – |
| O=C(Cc1csc2nc(-c3ccc(Br)cc3)cn12)N/N=C/c1ccccc1O | 10.1 µM | 22.6 µM | – | – | – | – | – | – |
| CSc1ccc2c(c1)N(CCCN(C)C)c1ccccc1S2 | – | 29.2 µM | – | – | – | – | 23.9 µM | – |
| Cc1nc(Nc2ccc(Cl)c(Cl)c2)sc1C(/C=C/c1ccc2c(c1)OCO2)=N/Nc1ccc([N+](=O)[O-])cc1[N+](=O)[O-] | – | > 100 µM | > 100 µM | > 100 µM | > 100 µM | 25.9 µM | > 100 µM | – |
| C#CCN(CCCOc1ccc(Cl)cc1Cl)CCCSC(=O)CCCCCN1/C(=C\C=C2/CCCC(/C=C/C3=[N+](CCCCCC(=O)[O-])c4ccccc4C3(C)C)=C2Cl)C(C)(C)c2ccccc21 | 1.05 µM | 2.34 µM | – | – | – | – | – | – |

| Compound | GI50 [1] | TGI [1] | TGI [2] | TGI [3] | TGI [4] | TGI [5] | TGI [6] | TGI [7] |
| --- | --- | --- | --- | --- | --- | --- | --- | --- |
| Clc1cc(Cl)cc(Nc2ccc3c(OCCCN4CCOCC4)cccc3n2)c1 | 6.93 µM | 20 µM | – | – | – | – | – | – |
| Cc1cccc(NC(=O)CSc2nnc(-c3ccc(N=Cc4ccc(Cl)cc4)cc3)o2)c1 | – | – | > 100 µM | > 100 µM | > 100 µM | > 100 µM | – | – |
| CCOc1ccccc1NC(=O)C1=C(C)NC(C)=C(C(=O)Nc2ccccc2OCC)C1c1ccc2c(c1)OCO2 | – | – | > 100 µM | > 100 µM | > 100 µM | 95.6 µM | – | – |
| CC1(C)O[C@@H](CCl)C[C@@H](C#N)O1 | – | – | > 100 µM | > 100 µM | > 100 µM | > 100 µM | – | – |
| CC(=O)Nc1ccc2c(c1)[nH]c(=O)c1cc(Cl)ccc12 | – | > 100 µM | – | – | – | – | – | – |
| C=C1CCC2C(C)(CO)C(O)CCC2(C)C1C/C=C1\C(=O)OCC1O (centres undefined) | – | 20.3 µM | – | – | – | – | 55.1 µM | – |
| COc1ccccc1CNCCCN1C(=O)c2ccc3c4c(ccc(c24)C1=O)C(=O)N(CCCNCCCCN)C3=O | 1.21 µM | 2.59 µM | – | – | – | – | – | – |
| Cc1cc2nc3c(C(OC4OC(CO)C(O)C(O)C4O)C(O)CO)nn(-c4ccc(F)cc4)c3nc2cc1C (centres undefined) | – | – | > 100 µM | > 100 µM | > 100 µM | > 100 µM | – | > 100 µM |
| COC(=O)C1C(=O)NC2(C)CC1c1ccccc1O2 (centres undefined) | – | – | > 100 µM | – | > 100 µM | > 100 µM | – | – |
| O=C(Cn1ccnc1[N+](=O)[O-])NCc1ccc(F)cc1 | – | – | > 100 µM | > 100 µM | > 100 µM | – | – | > 100 µM |
| O=C1Cc2c([nH]c3ccccc23)-c2cc(Br)ccc2N1 | – | – | > 100 µM | > 100 µM | > 100 µM | > 100 µM | – | > 100 µM |
| CNc1ccc(CSc2ccc(C)cc2)cc1 | 3.08 µM | 23 µM | – | – | – | – | – | – |
| COc1ccc(-c2nc3sccn3c2/C=C/C(=O)c2cc(OC)c(OC)c(OC)c2)cc1 | 2.56 µM | > 28.7 µM | – | – | – | – | – | – |
| CC(C)(C)c1cnc(CSc2cnc(NC(=O)C3CCNCC3)s2)o1 | 0.304 µM and 0.298 µM | 2.83 µM and 2.45 µM | – | – | – | – | – | – |
| CCOc1ccc(N=Nc2c(-c3ccccc3)nn(C(=O)CC(=O)Nc3ccccc3Cl)c2-c2ccccc2)cc1 | – | – | > 100 µM | > 100 µM | > 100 µM | > 100 µM | – | – |
| COc1cc2ccc(CC(=O)O)cc2cc1OC | – | – | > 100 µM | > 100 µM | > 100 µM | > 100 µM | – | > 100 µM |
| COc1cc([C@H]2c3cc4c(cc3[C@H](NCc3ccc(F)cc3)C3COC(=O)[C@H]32)OCO4)cc(OC)c1O (some centres undefined) | – | – | 18.7 µM | 15.8 µM | 23.4 µM | 78 µM | – | 14.3 µM |
| CC[C@]1(O)C[C@@H]2CN(CCc3c([nH]c4ccccc34)[C@@](C(=O)OC)(c3cc4c(cc3OC)N(C)[C@H]3[C@@](O)(C(=O)OC)[C@H](OC(=O)CCCBr)[C@]5(CC)C=CCN6CC[C@]43[C@@H]65)C2)C1 | 0.0637 µM | 10.1 µM | – | – | – | – | – | – |
| CCOC(=O)c1cnc2c(ccc3ncccc32)c1OCC | – | – | > 100 µM | > 100 µM | > 100 µM | > 100 µM | – | > 100 µM |
| c1ccc(-c2nc3ccccc3[nH]2)c(OCCCCCOc2ccccc2-c2nc3ccccc3[nH]2)c1 | 13.5 µM | 33.3 µM | – | – | – | – | – | – |
